Target: T1, human recombinant adenosine A3 receptors (Homo sapiens, UniProt P0DMS8)
T1 construct: host or cells: CHO-K1 (Chinese hamster ovary K1 cells)
T1 sequence (P0DMS8 1-318): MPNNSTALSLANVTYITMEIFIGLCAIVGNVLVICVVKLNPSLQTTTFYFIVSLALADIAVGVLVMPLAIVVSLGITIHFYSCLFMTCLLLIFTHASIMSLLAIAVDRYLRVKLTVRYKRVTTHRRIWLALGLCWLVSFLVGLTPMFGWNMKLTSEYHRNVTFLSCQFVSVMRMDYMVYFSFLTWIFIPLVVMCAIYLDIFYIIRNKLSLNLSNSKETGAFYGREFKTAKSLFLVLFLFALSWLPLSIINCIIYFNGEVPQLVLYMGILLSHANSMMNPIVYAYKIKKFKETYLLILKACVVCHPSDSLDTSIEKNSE
Assay: Test for affinity for adenosine A3 receptor ([125I]AB-MECA binding to CHO-K1 cell membranes)
Details: for Affinity 10 μM: 10 μM trehalose compound; for Affinity 10 μM / Affinity 3 μM: 0.5 nM [125I]AB-MECA, 60 min, 25° C.; for Affinity 3 μM: 3 μM trehalose compound; for IC50: [125I]AB-MECA displacement
Method: Specifically, ovarium K1 cells of a Chinese hamster (obtained from Euroscreen S. A.; hereunder referred to as “CHO-K1”) expressing human recombinant adenosine A3 receptors were cultured in a modified HEPES buffer free of Ca^2+ and Mg^2+. Subsequently, the cultured CHO-K1 was scraped and homogenized in 50 mM of ice-cooled Tris-HCl (pH 7.4). The resulting mixture was subjected to centrifugation at 48,000×g for 15 minutes to obtain a cell membrane pellet. The obtained cell membrane pellet was washed twice with another modified HEPES buffer, and then subjected again to centrifugation. The washed cell membrane pellet was suspended again in a small quantity of 50 mM Tris-HCl (pH 7.4).
The concentration of the adenosine A3 receptor in the obtained cell membrane pellet was measured as follows. A 0.5 nM amount of [^125I] […] Thereafter, 50 mM of ice-cooled Tris-HCl (pH 7.4) was added thereto to halt the reaction, and then the cell membrane pellet was filtrated out using a glass fiber filter. The filtered cell membrane pellet was washed 3 times with an ice-cooled buffer so as to remove excessive ligands. The radioactivity in the resulting cell membrane pellet on a filter was measured using a scintillation counter (Type 1470 Automatic Counter; PerkinElmer, Inc.).
Separately, in order to measure nonspecific bindings of [^125I] AB-MECA other than to an adenosine A3 receptor, 1 μM of […] (a selective radioagonist of A3 receptor N^6-(3-iodobenzyl)-5′-(N-[…]) adenosine) was further added to the obtained suspension of the cell membrane pellet, and the same measurement was carried out as in the aforesaid binding experiment. The average specific binding value of [^125I] AB-MECA to the adenosine A3 receptor was calculated based on the results obtained in the above experiment.
Further, in a Comparative Example, the same measurement was carried out with respect to the compounds taught in Non-Patent Document 1 and Non-Patent Document 2 (in the chemical formula of Table 1, R^1=R^3=octyl, R^2=R^4=heptyl, X=X′=OH, and Y=Y′═O).

SMILES	Affinity 10 μM	Affinity 3 μM	IC50	Affinity 10 μM (listed as F-5)	Affinity 10 μM (listed as F-6)
CCCCCCCCC(O)C(CCCCCCC)C(=O)OCC1O[C@H](O[C@@H]2OC(COC(=O)C(CCCCCCC)C(O)CCCCCCCC)[C@@H](O)C(O)C2O)C(O)C(O)[C@@H]1O (some centres unmarked) [Comparative Example, reference compound]	29	–	–	–	–
CCCCCC[C@@H](O)[C@@H](CCCCC)C(=O)OC[C@H]1O[C@H](O[C@H]2O[C@H](COC(=O)[C@H](CCCCC)[C@H](O)CCCCCC)[C@@H](O)[C@H](O)[C@H]2O)[C@H](O)[C@@H](O)[C@@H]1O [Production Example F-1, 6,6′-bis-O-[(2R,3R)-3-hydroxy-2-pentylnonanoyl]-α,α′-trehalose]	97	56	2.61 µM	–	–
CCCCCC[C@H](O)[C@H](CCCCC)C(=O)OC[C@H]1O[C@H](O[C@H]2O[C@H](COC(=O)[C@@H](CCCCC)[C@@H](O)CCCCCC)[C@@H](O)[C@H](O)[C@H]2O)[C@H](O)[C@@H](O)[C@@H]1O [Production Example F-2, 6,6′-bis-O-[(2S,3S)-3-hydroxy-2-pentylnonanoyl]-α,α′-trehalose]	86	57	–	–	–
CCCCCC[C@H](O)[C@@H](CCCCC)C(=O)OC[C@H]1O[C@H](O[C@H]2O[C@H](COC(=O)[C@H](CCCCC)[C@@H](O)CCCCCC)[C@@H](O)[C@H](O)[C@H]2O)[C@H](O)[C@@H](O)[C@@H]1O [Production Example F-3, 6,6′-bis-O-[(2R,3S)-3-hydroxy-2-pentylnonanoyl]-α,α′-trehalose]	100	59	–	–	–
CCCCCC[C@@H](O)[C@H](CCCCC)C(=O)OC[C@H]1O[C@H](O[C@H]2O[C@H](COC(=O)[C@@H](CCCCC)[C@H](O)CCCCCC)[C@@H](O)[C@H](O)[C@H]2O)[C@H](O)[C@@H](O)[C@@H]1O [Production Example F-4, 6,6′-bis-O-[(2S,3R)-3-hydroxy-2-pentylnonanoyl]-α,α′-trehalose]	91	32	–	–	–
CCCCCCCC(O)C(CCCCCC)C(=O)OCC1OC(OC2OC(COC(=O)C(CCCCCC)C(O)CCCCCCC)C(O)C(O)C2O)C(O)C(O)C1O [Production Example F-5, 6,6′-bis-O-[(2R,3R)-2-hexyl-3-hydroxydecanoyl]-α,α′-trehalose]	–	–	–	83	–
CCCCCCCC(O)C(CCCCCC)C(=O)OCC1OC(OC2OC(COC(=O)C(CCCCCC)C(O)CCCCCCC)C(O)C(O)C2O)C(O)C(O)C1O [Production Example F-6, 6,6′-bis-O-[(2S,3S)-2-hexyl-3-hydroxydecanoyl]-α,α′-trehalose]	–	–	–	–	59
CCCCCCC(OC)C(CCCCC)C(=O)OCC1OC(OC2OC(COC(=O)C(CCCCC)C(CCCCCC)OC)C(O)C(O)C2O)C(O)C(O)C1O [Production Example F-7, 6,6′-bis-O-[(2R,3R)-3-methoxy-2-pentylnonanoyl]-α,α′-trehalose]	96	84	–	–	–
CCCCC(CCCC)C(=O)OC[C@H]1O[C@H](O[C@H]2O[C@H](COC(=O)C(CCCC)CCCC)[C@@H](O)[C@H](O)[C@H]2O)[C@H](O)[C@@H](O)[C@@H]1O [Production Example F-8, 6,6′-bis-O-(2-butylhexanoyl)-α,α′-trehalose]	72	14	–	–	–
CCCCCC(CCCCC)C(=O)OC[C@H]1O[C@H](O[C@H]2O[C@H](COC(=O)C(CCCCC)CCCCC)[C@@H](O)[C@H](O)[C@H]2O)[C@H](O)[C@@H](O)[C@@H]1O [Production Example F-9, 6,6′-bis-O-(2-pentylheptanoyl)-α,α′-trehalose]	99	97	0.459 µM	–	–
CCCCC[C@@H](O)[C@@H](CCCC)C(=O)OC[C@H]1O[C@H](O[C@H]2O[C@H](COC(=O)[C@@H](CCCC)[C@@H](O)CCCCC)[C@@H](O)[C@H](O)[C@H]2O)[C@H](O)[C@@H](O)[C@@H]1O [Production Example F-12, 6-O-[(2R,3R)-2-butyl-3-hydroxyoctanoyl]-6′-O-[(2S,3S)-2-butyl-3-hydroxyoctanoyl]-α,α′-trehalose]	48	–	–	–	–
CCCCCC[C@@H](O)[C@@H](CCCCC)C(=O)OC[C@H]1O[C@H](O[C@H]2O[C@H](COC(=O)[C@@H](CCCCC)[C@@H](O)CCCCCC)[C@@H](O)[C@H](O)[C@H]2O)[C@H](O)[C@@H](O)[C@@H]1O [Production Example F-13, 6-O-[(2R,3R)-3-hydroxy-2-pentylnonanoyl]-6′-O-[(2S,3S)-3-hydroxy-2-pentylnonanoyl]-α,α′-trehalose]	97	54	2.75 µM	–	–
CCCCCCC[C@@H](O)[C@@H](CCCCCC)C(=O)OC[C@H]1O[C@H](O[C@H]2O[C@H](COC(=O)[C@@H](CCCCCC)[C@@H](O)CCCCCCC)[C@@H](O)[C@H](O)[C@H]2O)[C@H](O)[C@@H](O)[C@@H]1O [Production Example F-14, 6-O-[(2R,3R)-3-hydroxy-2-hexyldecanoyl]-6′-O-[(2S,3S)-3-hydroxy-2-hexyldecanoyl]-α,α′-trehalose]	77	–	–	–	–

Now from value to compound:

Affinity 10 μM	Affinity 3 μM	IC50	Affinity 10 μM (listed as F-5)	Affinity 10 μM (listed as F-6)	SMILES
66	65	–	–	–	CCCCCCC(CCCCCC)C(=O)OCC1OC(OC2OC(COC(=O)C(CCCCCC)CCCCCC)C(O)C(O)C2O)C(O)C(O)C1O (stereo not drawn) [Production Example F-10, 6,6′-bis-O-(2-hexyloctanoyl)-α,α′-trehalose]
62	74	–	–	–	CCCCCCCC(CCCCC)C(=O)OC[C@H]1O[C@H](O[C@H]2O[C@H](COC(=O)C(CCCCC)CCCCCCC)[C@@H](O)[C@H](O)[C@H]2O)[C@H](O)[C@@H](O)[C@@H]1O (stereo partly drawn) [Production Example F-11, 6,6′-bis-O-(2-pentylnonanoyl)-α,α′-trehalose]
69	29	–	–	–	CCCCCC[C@@H](O)[C@@H](CCCCC)C(=O)NC[C@H]1O[C@H](O[C@H]2O[C@H](CNC(=O)[C@H](CCCCC)[C@H](O)CCCCCC)[C@@H](O)[C@H](O)[C@H]2O)[C@H](O)[C@@H](O)[C@@H]1O [Production Example F-15, 6,6′-bis-N-[(2R,3R)-3-hydroxy-2-pentylnonanoylamino]-6,6′-dideoxy-α,α′-trehalose]
96	57	–	–	–	CCCCCCC(OC)C(CCCCC)C(=O)NCC1OC(OC2OC(CNC(=O)C(CCCCC)C(CCCCCC)OC)C(O)C(O)C2O)C(O)C(O)C1O [Production Example F-16, 6,6′-bis-N-[(2R,3R)-3-methoxy-2-pentylnonanoylamino]-6,6′-dideoxy-α,α′-trehalose]
–	22	–	–	–	CCCCCCC(CCCCCC)C(=O)NCC1OC(OC2OC(CNC(=O)C(CCCCCC)CCCCCC)C(O)C(O)C2O)C(O)C(O)C1O (stereo not drawn) [Production Example F-17, 6,6′-bis-N-(2-hexyloctanoylamino)-6,6′-dideoxy-α,α′-trehalose]
89	33	–	–	–	CCCCCCCC(CCCCC)C(=O)NCC1OC(OC2OC(CNC(=O)C(CCCCC)CCCCCCC)C(O)C(O)C2O)C(O)C(O)C1O (stereo not drawn) [Production Example F-18, 6,6′-bis-N-(2-pentylnonanoylamino)-6,6′-dideoxy-α,α′-trehalose]

Reference: US8163713B2, “Trehalose compound and pharmaceutical comprising the compound” (Otsuka Chemical Co., Ltd., priority 2006, dated 2012)
